Experimental data as given in ChEMBL document CHEMBL2074460, “P-glycoprotein-mediated transport of digitoxin, alpha-methyldigoxin and beta-acetyldigoxin” (Naunyn Schmiedebergs Arch Pharmacol, 2001).

These compounds were tested against ATP-dependent translocase ABCB1 (Homo sapiens, UniProt P08183) (assay: TP_TRANSPORTER: transepithelial transport (basal to apical) in MDR1-expressing LLC-PK1 cells). Conditions: pig.
Format: functional, cell-based

Chain of ATP-dependent translocase ABCB1 (P08183 whole entry): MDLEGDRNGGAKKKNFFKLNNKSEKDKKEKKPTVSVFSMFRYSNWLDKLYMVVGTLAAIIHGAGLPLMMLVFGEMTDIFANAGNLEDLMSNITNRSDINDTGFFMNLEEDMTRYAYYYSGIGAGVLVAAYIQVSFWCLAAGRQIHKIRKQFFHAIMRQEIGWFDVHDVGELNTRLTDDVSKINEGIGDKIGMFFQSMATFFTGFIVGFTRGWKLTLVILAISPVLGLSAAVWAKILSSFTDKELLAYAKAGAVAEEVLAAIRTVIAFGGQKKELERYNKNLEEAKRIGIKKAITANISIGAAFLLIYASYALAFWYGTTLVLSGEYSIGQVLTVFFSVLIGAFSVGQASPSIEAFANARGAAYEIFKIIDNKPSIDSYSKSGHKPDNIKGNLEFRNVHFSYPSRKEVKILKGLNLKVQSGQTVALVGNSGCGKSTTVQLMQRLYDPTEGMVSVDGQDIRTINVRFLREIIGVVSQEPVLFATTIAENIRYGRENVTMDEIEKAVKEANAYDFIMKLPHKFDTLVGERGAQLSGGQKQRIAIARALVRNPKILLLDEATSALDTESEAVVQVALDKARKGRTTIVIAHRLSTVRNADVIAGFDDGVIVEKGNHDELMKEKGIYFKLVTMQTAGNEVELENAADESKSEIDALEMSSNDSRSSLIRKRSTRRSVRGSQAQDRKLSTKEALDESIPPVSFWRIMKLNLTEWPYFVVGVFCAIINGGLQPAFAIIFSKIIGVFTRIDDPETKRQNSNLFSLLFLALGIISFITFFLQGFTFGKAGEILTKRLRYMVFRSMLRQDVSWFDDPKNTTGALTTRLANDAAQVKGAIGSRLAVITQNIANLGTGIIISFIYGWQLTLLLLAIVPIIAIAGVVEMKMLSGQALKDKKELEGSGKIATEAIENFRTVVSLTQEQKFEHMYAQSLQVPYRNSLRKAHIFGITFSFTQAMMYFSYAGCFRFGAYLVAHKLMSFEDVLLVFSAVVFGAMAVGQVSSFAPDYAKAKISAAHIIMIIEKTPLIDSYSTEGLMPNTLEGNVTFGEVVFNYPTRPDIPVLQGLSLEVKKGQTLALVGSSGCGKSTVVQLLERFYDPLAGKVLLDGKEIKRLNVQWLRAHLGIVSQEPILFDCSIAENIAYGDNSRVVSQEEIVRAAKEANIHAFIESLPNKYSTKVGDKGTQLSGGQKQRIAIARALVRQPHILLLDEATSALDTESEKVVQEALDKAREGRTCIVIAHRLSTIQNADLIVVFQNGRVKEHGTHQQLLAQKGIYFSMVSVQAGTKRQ

Structure (SMILES)	Activity
CC(=O)O[C@H]1C[C@H](O[C@H]2[C@@H](O)C[C@H](O[C@H]3[C@@H](O)C[C@H](O[C@H]4CC[C@@]5(C)[C@H](CC[C@@H]6[C@@H]5C[C@@H](O)[C@]5(C)[C@@H](C7=CC(=O)OC7)CC[C@]65O)C4)O[C@@H]3C)O[C@@H]2C)O[C@H](C)[C@H]1O [ACETYLDIGOXIN]	substrate [+]
O=C(O)CCC(=O)C(=O)O [ALPHA-KETOGLUTARIC ACID]	substrate [+]
C[C@H]1O[C@@H](O[C@H]2[C@@H](O)C[C@H](O[C@H]3[C@@H](O)C[C@H](O[C@H]4CC[C@@]5(C)[C@H](CC[C@@H]6[C@@H]5CC[C@]5(C)[C@@H](C7=CC(=O)OC7)CC[C@]65O)C4)O[C@@H]3C)O[C@@H]2C)C[C@H](O)[C@@H]1O [DIGITOXIN]	substrate [+]
